The subject of the assay is male erectile function (penis). In words: Clinical observations and case reports (Patients A-G): erectile response of men after local or systemic application. It is filed as in vivo, man. Particulars: for persistence of improvements after the last injection: after last IGF1 injection.
Setting [1] is: Patient C, severe erectile dysfunction, maximal doses, before treatment.
The mark [2] stands for this setting: Patient C, maximal oral doses with daily topical androgens.
[3] abbreviates: Patient D, maximal oral doses combined with intracavernosal injections, before local IGF1.
[4] abbreviates: Patient D, oral medication without intracavernosal injections, after local IGF1.
[5] abbreviates: Patient D, oral medications, baseline.
Setting [6] is: Patient G, oral medication, baseline.
[7] abbreviates: Patient E, four weekly IGF1 injections plus 2.5% testosterone cream.

As to `CN1CC(=O)N2[C@H](c3ccc4c(c3)OCO4)c3[nH]c4ccccc4c3C[C@@H]2C1=O` [Cialis], the “erectile response” value is, setting by setting: under setting [1], “not having any erections”; under setting [2], “still could not function”; under setting [3], “frequently going soft during intercourse”; under setting [4], “getting usable erections”; under setting [5], “not responding”; under setting [6], “not able function sexually”.
Regarding `CCCc1nc(C)c2c(=O)[nH]c(-c3cc(S(=O)(=O)N4CCN(CC)CC4)ccc3OCC)nn12` [Levitra], the “erectile response” value is listed as “not having any erections” under setting [1]; “still could not function” under setting [2]; “frequently going soft during intercourse” under setting [3]; “getting usable erections” under setting [4]; “not responding” under setting [5]; “not able function sexually” under setting [6].
Consider `C[C@]12CC[C@H]3[C@@H](CCC4=CC(=O)CC[C@@]43C)[C@@H]1CC[C@@H]2O` [Testosterone], for which the “erectile function after about a month” value (Patient B, 10 mg Testosterone + 6 mcg LR3 IGF1 + 6 mcg PGE1 IC, 2-3 times per week) is “able to have sexual intercourse without any medications”. The “erectile response” value (Patient B, 10 mg Testosterone added to IC mixture of 6 mcg LR3 IGF1 plus 6 mcg PGE1, 2-3 times per week) is “dramatically harder and firmer erections”.
As for `CCCc1nn(C)c2c(=O)[nH]c(-c3cc(S(=O)(=O)N4CCN(C)CC4)ccc3OCC)nc12` [Viagra], the “erectile response” value by setting is: under setting [1], “not having any erections”; under setting [2], “still could not function”; under setting [3], “frequently going soft during intercourse”; under setting [4], “getting usable erections”; under setting [5], “not responding”; under setting [6], “not able function sexually”.
In the case of `CCCCC[C@H](O)/C=C/[C@H]1[C@H](O)CC(=O)[C@@H]1CCCCCCC(=O)O` [prostaglandin E1], the erection firmness (Patient A (person one), 1.5 ug prostaglandin E1 intracavernosally alone) is 70-75% and the erection firmness (Patient B, venous leakage, 6 ug prostaglandin E1 intracavernosally alone) is 60%. Also, the duration of erection entry (Patient B, 6 ug prostaglandin E1 intracavernosally alone) is given as “about 30 mins”. Besides, the “erectile response” value (Patient C, maximum doses of PGE1 40 ug/ml plus triple mix papavarine, atropine, phentolamine) was “unable to obtain a usable erection”.
As for “Growth Hormone: Growth Hormone injections daily (Human Growth Hormone)”, the “erectile function” value (Patient D, daily Growth Hormone injections, 1 year) is “did not report a significant improvement in their erectile function”.
On to “IGF1: IGF-1 (Somatomedin-C), full length protein of 70 amino acids in a single chain with three intramolecular disulfide bridges”, for which the “erectile response” value is, setting by setting: (Patient C, 10-20 ug IGF-1 or 6-10 ug LR3 IGF1 sub-cutaneously plus topical 1% testosterone gel, 3-4 times per week, one month) “erections dramatically improved”; (Patient D, systemic IGF1 50-100 ug/day subcutaneously in abdomen, with intracavernosal meds) “not getting adequate erections”. Besides, under “Patient D, after penile and intracavernosal IGF1 (5-10 ug combined with intracavernosal injections)”, the “reduction of intracavernosal medication dose” value is “over 50%”. In addition, the “erectile function” value (Patient D, some of the daily 50-100 ug IGF1 injections applied intermittently into the penis) was “immediately experienced improved erectile function”; the “erectile function” value (Patient E, four weekly subcutaneous IGF1 injections into penis shaft plus 2.5% testosterone cream twice daily) is “dramatically improved the patient's erectile function”; the “erectile function” value (Patient G, twice weekly subcutaneous 25 ug IGF1 into penis shaft, after Dihydrotestosterone cream) was “immediately began experiencing firmer spontaneous erections”; the “erectile function” value (men, 50-100 μg once per week sub-cutaneously or subdermally in the penis) is listed as “dramatic improvement in their erectile function”. Besides, the “persistence of improvements after the last injection” value (Patient E) is “persisted for several weeks” and the “persistence of improvements after the last injection” value (Patient G) is listed as “persist for several weeks”. In addition, the “duration of erection after an intracavernosal injection” value under setting [7] is recorded as “over 40 minutes”. The “hardness of erection after an intracavernosal injection” value under setting [7] is reported as “over 80%”. The “time to functional erections without the need for PDE5's” value (men relying on PDE5's, higher locally applied penile doses) was 1-2 weeks. For the same compound, where the note is “men who had used only a couple of doses, essentially gone after a month”, the “time after discontinuation until improvement noticeably started weakening” value was 1-2 weeks.

Source of the values: patent US9545395B2, “Method and composition for enhancement of male erectile function” (priority 2008, dated 2017).
